Results reported in US20200001109A1, “Methods For Treating Hyperbilirubinemia With Stannsoporfin And Phototherapy” (INFACARE PHARMACEUTICAL CORPORATION, priority 2016, published 2020).

Assays:
[1] = tested on: total serum bilirubin (TSB); test: Phase 2b randomized, placebo-controlled trial of single IM stannsoporfin with phototherapy: efficacy on TSB; format: in vivo, human infants; details: for Rebound Hyperbilirubinemia N: TSB at or above PT threshold after discontinuation of initial PT; for LS Mean Difference vs Placebo in TSB at 48 hrs: difference in TSB percentage change from baseline vs placebo plus phototherapy; for PT Failure N: exchange transfusion, IVIG use, readmission for hyperbilirubinemia or re-started PT; for Time at which TSB crosses at or below the PT threshold, Median: plus phototherapy; for LS Mean Percentage Change in TSB at 48 hrs: single IM injection plus phototherapy, change from baseline, LOCF
Protocol: (§1) A Phase 2b multicenter, double-blind, randomized, placebo-controlled parallel group safety and efficacy trial of two doses of stannsoporfin administered as a single intramuscular injection in combination with phototherapy in term and near-term infants has been proposed and performed.
(§2) Infants will be randomized to one of three treatment arms: placebo, 3.0 mg/kg, or 4.5 mg/kg of stannsoporfin in a 1:1:1 ratio. Infants aged 0 to 48 hours (at the time the qualifying TSB is drawn) with ABO or Rh incompatibility who are DAT-positive, or age 0 to 72 hours (at the time the qualifying TSB is drawn) with G6PD deficiency, confirmed by a documented blood test, who require the initiation of phototherapy are eligible for the study. In addition, patients aged 0 to 48 hours (at the time the qualifying TSB is drawn) with ABO or Rh incompatibility who are DAT negative (or status unknown), and have an increased reticulocyte count (>6%), and require the initiation of phototherapy are eligible for the study.
Inclusion Criteria: 1) Term and near-term infants ≥35 and ≤43 weeks gestational age (GA), age 0-48 hours (at the time the qualifying TSB is drawn) with ABO or Rh incompatibility (anti C, c, D, E or e) who are DAT-positive, or age 0-72 hours (at the time the qualifying TSB is drawn) with G6PD deficiency as confirmed by a documented blood test; OR 2) Term and near-term infants ≥35 and ≤43 weeks GA, age 0-48 hours (at the time the qualifying TSB is drawn) with ABO or Rh incompatibility (anti C, c, D, E or e) who are DAT-negative (or status unknown) and have an increased reticulocyte count (>6%); parental or guardian written consent; birth weight ≥2500 grams; TSB at or above the age-specific threshold for initiating phototherapy per the AAP guidelines (see FIG. 1 and Tables 1, 2 and 3); and parents agree to observe light precautions for 10 days post treatment
Once the patient's TSB is at or above the age-specific threshold for phototherapy and all inclusion and no exclusion criteria are met (including laboratory criteria), patients will be immediately randomized to receive a single intramuscular dose of either placebo (saline), 3.0 mg/kg of stannsoporfin or 4.5 mg/kg of stannsoporfin.
Criteria for discontinuing phototherapy: The criteria for discontinuing phototherapy will be standardized. If a TSB measurement is obtained during phototherapy treatment that is below the age-specific threshold for phototherapy (FIG. 1), phototherapy should be discontinued. In order to check for rebound hyperbilirubinemia, a TSB level is to be obtained between 6 and 12 hours after phototherapy is discontinued (must be done before discharge). If the patient remains in the hospital and continues on phototherapy past 48 hours further assessments and procedures are to be conducted as listed in the Time and Event Table (Table 8).
Initiation of Phototherapy: Once the TSB result has been received, the administration of study drug and initiation of phototherapy should occur as soon as practical. phototherapy should be started within a window of no more than ±30 minutes from IMP administration.
Phototherapy must be narrow spectrum blue light with a single overhead unit. The height of the phototherapy unit should be adjusted to obtain an irradiance of 30 microwatts/cm2/nm at the level of the patient's abdomen. Irradiance should be measured and adjusted to maintain 30 microwatts/cm2/nm, until phototherapy is discontinued. The recordings are to be documented in the eCRF.
Monitoring during phototherapy: It is essential to protect the patient's eyes with opaque eye patches. These must be checked periodically to ensure complete eye coverage during phototherapy. Use of biliblankets or home phototherapy is not permitted. TSB levels will be done at 6, 12, 18, 24, 30, 36±2 h, and 48 hours±6 h after study drug administration (Table 8). If the patient continues on phototherapy past 48 hours, the TSB will be obtained every 12±6 h. […]

[2] = Phase 2b trial of stannsoporfin with phototherapy: safety (adverse events); format: in vivo, human infants
Protocol: as §1, §2
Safety outcome measures are: Incidence of adverse events and serious adverse events, changes in vital sign measurements, results of physical exam (PE) including eye and hearing assessment, results of neurologic exam, ECG assessments, clinical laboratory tests including hematology, serum chemistries, liver function and renal function tests. Adverse events and SAEs will be summarized for each treatment group and overall for both stannsoporfin treatment groups with the proportion of patients reporting each event. Actual values and change from baseline in vital signs, physical and neurologic exam and laboratory test parameters will be summarized for each treatment group and overall for both stannsoporfin treatment groups with descriptive statistics at each assessment obtained. Changes in ECG findings, ophthalmologic and audiology assessments will be summarized for each treatment group and overall for both stannsoporfin treatment groups with descriptive statistics at each assessment obtained, including changes from baseline to Day 30 (early term). Efficacy and safety parameters will also be analyzed according to DAT status.
The results from a Phase 2b multicenter, double blind, randomized, placebo controlled parallel group safety and efficacy trial of two doses of stannsoporfin administered as a single intramuscular (IM) injection in combination with phototherapy (PT) in term and near-term infants, all with an ABO/Rh incompatibility were highly statistically significant and positive. Ninety-one neonates (aged 24 hours of age, range 7 to 54 hours), all at medium to high risk of severe hyperbilirubinemia, all with an ABO/Rh incompatibility, birth weights of 2580 to 4930 grams, and gestational age of 35 to 42 weeks, were randomized to one of three treatment arms: placebo (saline), 3.0 mg/kg stannsoporfin, or 4.5 mg/kg of stannsoporfin. All were included in the intent-to-treat-primary efficacy and safety analyses.
TEAEs occurred in 59% of Stannsoporfin treated infants vs 52% among placebo. Serious TEAEs occurred in 15% of Stannsoporfin treated infants vs 20% of placebo. TEAEs related to phototherapy (eg skin rash, erythema) occurred in 16% of Stannsoporfin treated infants vs 10% of placebo.

[3] = tested on: total serum bilirubin (TSB); details: 3.0 and 4.5 mg/kg stannsoporfin patients receiving phototherapy; previous study (placebo 41%); cited from earlier work
[4] = Stannsoporfin 3.0 mg/kg (N = 30)
[5] = Stannsoporfin 4.5 mg/kg (N = 31)
[6] = Stannsoporfin Combined (N = 61)
[7] = both high dose (4.5 mg/kg) and low dose (3.0 mg/kg), compared with phototherapy and placebo
[8] = all treatment arms of the trial

## CCC1=C(C)c2cc3[n-]c(cc4[n-]c(cc5nc(cc1n2)C(C)=C5CC)c(C)c4CCC(=O)O)c(CCC(=O)O)c3C.[Cl-].[Cl-].[Sn+4] [Stannsoporfin, tin-mesoporphyrin IX dichloride]
[1]; [4]
  PT Failure (%): (10%)
  PT Failure Odds Ratio vs Placebo: 0.31
  Rebound Hyperbilirubinemia (%): (9%)
  Rebound Hyperbilirubinemia N: 0/30
  LS Mean Difference vs Placebo in TSB at 48 hrs: −31.69
  PT Failure N: 3/30
  Time at which TSB crosses at or below the PT threshold, Median: 11.8 h
  LS Mean Percentage Change in TSB at 48 hrs: −9.5%
[1]; [5]
  PT Failure (%): (3%)
  PT Failure Odds Ratio vs Placebo: 0.09
  Rebound Hyperbilirubinemia (%): (3%)
  Rebound Hyperbilirubinemia N: 1/31
  LS Mean Difference vs Placebo in TSB at 48 hrs: −27.69
  PT Failure N: 1/31
  Time at which TSB crosses at or below the PT threshold, Median: 10.6 h
  LS Mean Percentage Change in TSB at 48 hrs: −5.5%
[1]; [6]
  PT Failure (%): (7%)
  PT Failure Odds Ratio vs Placebo: 0.20
  Rebound Hyperbilirubinemia (%): (2%)
  Rebound Hyperbilirubinemia N: 1/61
  LS Mean Difference vs Placebo in TSB at 48 hrs: −29.69
  PT Failure N: 4/61
  Time at which TSB crosses at or below the PT threshold, Median: 11.6 h
  LS Mean Percentage Change in TSB at 48 hrs: −7.4%
[1]; [7]
  effect on percentage change in total serum bilirubin (TSB) at 24 hours after drug administration: highly statistically significant (P<0.0001) positive effect
  effect on percentage change in total serum bilirubin (TSB) at 48 hours after drug administration: highly significant (P<0.0001) positive effect
[1]; both high dose (4.5 mg/kg) and low dose (3.0 mg/kg), compared with phototherapy and placebo, listed as stannsoporfin
  effect on percentage change in total serum bilirubin (TSB) at 48 hours after drug administration: statistically significant positive effect
[2]; Stannsoporfin treated infants (both doses) plus phototherapy, vs 20% of placebo
  Serious TEAEs, proportion of infants: 15%
[2]; Stannsoporfin treated infants (both doses) plus phototherapy, vs 52% among placebo
  treatment-emergent adverse events (TEAEs), proportion of infants: 59%
[2]; Stannsoporfin treated infants (both doses), vs 10% of placebo
  TEAEs related to phototherapy (eg skin rash, erythema), proportion of infants: 16%
[2]; [8]
  discontinuation of the study due to an adverse event: no infant discontinued the study due to an adverse event
  infant deaths: no infant deaths
[2]; either dose (3.0 or 4.5 mg/kg)
  safety signals: no safety signals
[3]
  increase in TSB at 48 hours: 15%
